The values that follow come from ChEMBL document CHEMBL5465560, “Selectivity Literature for EUbOPEN Chemogenomic Library” (2024).

Assay [1] has as its target Macrophage colony-stimulating factor 1 receptor (Homo sapiens) (UniProt P07333). In words: Selectivity interaction (KinomeScan (DiscoverX)) EUB0000229b CSF1R. Particulars: at 10 µM.
Assay [2] has as its target Adenosine receptor A2a (Homo sapiens, UniProt P29274). In words: Selectivity interaction (Panel of kinases, GPCRs, ion channels and transporters (enzymatic assay)) EUB0000266bCl ADORA2A.
Assay [3] concerns the target T1, Mitogen-activated protein kinase kinase kinase 3 (Homo sapiens) (UniProt Q99759).
T1 sequence (whole entry): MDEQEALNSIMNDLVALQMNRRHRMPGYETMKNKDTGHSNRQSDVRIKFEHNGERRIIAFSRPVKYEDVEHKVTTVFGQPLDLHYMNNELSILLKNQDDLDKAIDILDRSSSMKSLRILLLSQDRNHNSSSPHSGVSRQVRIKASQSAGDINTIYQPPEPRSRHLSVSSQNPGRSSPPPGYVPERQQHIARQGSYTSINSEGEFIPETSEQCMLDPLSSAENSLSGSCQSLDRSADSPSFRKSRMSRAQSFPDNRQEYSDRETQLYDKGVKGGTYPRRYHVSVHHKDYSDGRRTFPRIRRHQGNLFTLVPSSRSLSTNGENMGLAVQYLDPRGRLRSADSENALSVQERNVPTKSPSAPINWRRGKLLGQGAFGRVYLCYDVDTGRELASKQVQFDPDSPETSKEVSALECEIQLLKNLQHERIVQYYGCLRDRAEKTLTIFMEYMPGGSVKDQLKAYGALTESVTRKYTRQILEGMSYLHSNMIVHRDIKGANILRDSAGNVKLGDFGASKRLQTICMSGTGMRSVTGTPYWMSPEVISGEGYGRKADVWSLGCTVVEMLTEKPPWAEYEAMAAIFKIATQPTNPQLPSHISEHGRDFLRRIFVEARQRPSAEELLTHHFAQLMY
In words: Selectivity interaction (ActivX KiNativ screen (ex vivo kinase selectivity in human PBMCs)) EUB0001619a MAP3K3. In kind it is cell-based. Conditions: PBMC, at 1 µM.

Assay [4] addresses T2, Mitogen-activated protein kinase kinase kinase 6 (Homo sapiens) (UniProt O95382).
T2 sequence (whole entry): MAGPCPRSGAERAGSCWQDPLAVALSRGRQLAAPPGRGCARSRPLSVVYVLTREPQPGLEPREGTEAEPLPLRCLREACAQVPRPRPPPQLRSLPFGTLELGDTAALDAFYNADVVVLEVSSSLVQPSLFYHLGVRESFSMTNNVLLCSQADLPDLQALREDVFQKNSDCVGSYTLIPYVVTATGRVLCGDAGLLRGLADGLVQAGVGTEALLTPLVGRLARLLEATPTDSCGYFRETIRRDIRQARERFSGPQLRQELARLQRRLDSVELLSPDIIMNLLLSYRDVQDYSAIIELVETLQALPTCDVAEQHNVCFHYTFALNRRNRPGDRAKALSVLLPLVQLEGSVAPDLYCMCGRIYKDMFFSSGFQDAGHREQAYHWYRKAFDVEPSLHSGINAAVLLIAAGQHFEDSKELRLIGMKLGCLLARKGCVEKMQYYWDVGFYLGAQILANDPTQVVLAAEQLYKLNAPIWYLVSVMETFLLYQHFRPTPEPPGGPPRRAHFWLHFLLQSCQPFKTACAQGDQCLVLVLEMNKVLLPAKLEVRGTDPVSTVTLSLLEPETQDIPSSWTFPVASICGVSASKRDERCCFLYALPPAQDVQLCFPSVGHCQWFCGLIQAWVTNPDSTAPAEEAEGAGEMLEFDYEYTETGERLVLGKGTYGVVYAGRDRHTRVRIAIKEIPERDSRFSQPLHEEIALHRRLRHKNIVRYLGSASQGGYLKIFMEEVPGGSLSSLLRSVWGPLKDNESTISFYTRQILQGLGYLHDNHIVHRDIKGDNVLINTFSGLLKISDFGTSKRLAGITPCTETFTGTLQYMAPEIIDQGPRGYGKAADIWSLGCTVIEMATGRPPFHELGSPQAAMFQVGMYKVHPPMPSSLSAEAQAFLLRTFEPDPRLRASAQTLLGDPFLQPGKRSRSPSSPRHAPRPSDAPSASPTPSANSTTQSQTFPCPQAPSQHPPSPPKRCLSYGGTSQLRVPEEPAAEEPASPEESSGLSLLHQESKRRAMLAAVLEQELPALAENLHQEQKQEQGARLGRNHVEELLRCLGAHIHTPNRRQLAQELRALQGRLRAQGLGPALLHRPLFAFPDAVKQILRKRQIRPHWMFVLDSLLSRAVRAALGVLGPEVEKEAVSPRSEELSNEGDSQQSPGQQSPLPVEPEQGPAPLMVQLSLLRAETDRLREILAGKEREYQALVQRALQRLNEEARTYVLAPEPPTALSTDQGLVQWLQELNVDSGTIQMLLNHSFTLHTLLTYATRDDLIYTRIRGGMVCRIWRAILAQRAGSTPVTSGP
Description: Selectivity interaction (ActivX KiNativ screen (kinase selectivity in THP-1 cell lysates)) EUB0000639a MAP3K6. In kind it is subcellular. Conditions: lysate, at 0.04 µM.

Assay [5] addresses Serine/threonine-protein kinase 16 (Homo sapiens, UniProt O75716). Description: Selectivity interaction (Kinase panel (Invitrogen)) EUB0000639a STK16. Conditions: at 200 nM.
For assay [6], the target named is Macrophage colony-stimulating factor 1 receptor (Homo sapiens) (UniProt P07333). In words: Selectivity interaction (ProQinase) EUB0000171b CSF1R.
Chain of Macrophage colony-stimulating factor 1 receptor (Homo sapiens) (P07333 whole entry): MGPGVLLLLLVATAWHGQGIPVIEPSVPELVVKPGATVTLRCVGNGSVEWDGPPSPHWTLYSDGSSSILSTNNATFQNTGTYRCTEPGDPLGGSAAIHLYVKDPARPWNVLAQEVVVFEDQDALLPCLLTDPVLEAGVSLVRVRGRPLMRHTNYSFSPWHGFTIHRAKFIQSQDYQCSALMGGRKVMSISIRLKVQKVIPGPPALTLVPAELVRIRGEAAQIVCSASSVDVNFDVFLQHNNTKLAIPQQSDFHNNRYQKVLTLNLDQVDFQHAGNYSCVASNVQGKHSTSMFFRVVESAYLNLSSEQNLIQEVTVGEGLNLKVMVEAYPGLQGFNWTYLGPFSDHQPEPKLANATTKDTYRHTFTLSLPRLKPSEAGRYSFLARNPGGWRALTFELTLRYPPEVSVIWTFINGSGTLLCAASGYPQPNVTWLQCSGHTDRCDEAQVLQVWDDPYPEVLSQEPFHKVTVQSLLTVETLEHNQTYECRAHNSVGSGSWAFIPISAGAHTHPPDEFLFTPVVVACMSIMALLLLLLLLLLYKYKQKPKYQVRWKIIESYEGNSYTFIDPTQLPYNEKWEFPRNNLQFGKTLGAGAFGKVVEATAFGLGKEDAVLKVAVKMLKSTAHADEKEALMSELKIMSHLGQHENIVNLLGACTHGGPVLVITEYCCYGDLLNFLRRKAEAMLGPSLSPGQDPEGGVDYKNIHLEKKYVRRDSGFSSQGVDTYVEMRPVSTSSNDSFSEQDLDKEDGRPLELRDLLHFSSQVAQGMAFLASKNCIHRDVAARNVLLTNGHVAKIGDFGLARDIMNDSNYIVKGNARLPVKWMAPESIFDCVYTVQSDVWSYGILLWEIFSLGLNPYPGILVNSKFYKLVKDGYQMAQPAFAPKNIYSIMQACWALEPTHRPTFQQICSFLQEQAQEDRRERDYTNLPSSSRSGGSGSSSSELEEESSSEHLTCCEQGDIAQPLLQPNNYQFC
The target of assay [7] is Tyrosine-protein kinase Fyn (Homo sapiens) (UniProt P06241). In words: Selectivity interaction (KinomeScan (DiscoverX)) EUB0000045b FYN.
Chain of Tyrosine-protein kinase Fyn (Homo sapiens) (P06241 2-537 limits assumed): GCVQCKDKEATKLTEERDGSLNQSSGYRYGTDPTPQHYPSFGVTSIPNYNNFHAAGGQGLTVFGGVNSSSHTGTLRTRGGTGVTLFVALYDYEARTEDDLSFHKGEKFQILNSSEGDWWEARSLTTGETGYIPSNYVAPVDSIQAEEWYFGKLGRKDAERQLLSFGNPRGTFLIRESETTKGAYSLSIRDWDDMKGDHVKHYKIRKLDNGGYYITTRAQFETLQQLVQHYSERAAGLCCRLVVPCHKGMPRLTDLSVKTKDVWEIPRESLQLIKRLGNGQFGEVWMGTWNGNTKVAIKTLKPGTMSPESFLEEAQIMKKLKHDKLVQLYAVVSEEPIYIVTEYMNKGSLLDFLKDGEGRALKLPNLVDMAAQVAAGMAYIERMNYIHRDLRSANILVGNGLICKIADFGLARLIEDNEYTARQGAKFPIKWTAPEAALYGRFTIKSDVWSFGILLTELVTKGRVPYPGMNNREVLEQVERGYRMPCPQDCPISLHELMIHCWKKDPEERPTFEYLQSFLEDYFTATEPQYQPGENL
The target of assay [8] is Casein kinase II subunit alpha (Homo sapiens, UniProt P68400). Description: Selectivity interaction (KinomeScan (DiscoverX)) EUB0000618a CSNK2A1. Conditions: at 10 µM.
Chain of Casein kinase II subunit alpha (P68400 whole entry, looked up): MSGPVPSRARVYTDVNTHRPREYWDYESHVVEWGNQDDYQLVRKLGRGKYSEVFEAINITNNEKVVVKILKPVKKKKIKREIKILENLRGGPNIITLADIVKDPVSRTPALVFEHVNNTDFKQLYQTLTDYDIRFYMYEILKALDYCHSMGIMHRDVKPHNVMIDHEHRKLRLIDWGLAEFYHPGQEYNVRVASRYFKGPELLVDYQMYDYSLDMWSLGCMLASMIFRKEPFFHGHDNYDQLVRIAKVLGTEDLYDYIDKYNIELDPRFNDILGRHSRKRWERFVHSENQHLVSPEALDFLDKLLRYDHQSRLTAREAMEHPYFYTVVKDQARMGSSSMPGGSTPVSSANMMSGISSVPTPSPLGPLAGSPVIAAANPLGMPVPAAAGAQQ
In assay [9] the target is Serine/threonine-protein kinase PAK 4 (Homo sapiens, UniProt O96013). Description: Selectivity interaction (Upstate Kinase Profiler service (Millipore)) EUB0000056c PAK4. Conditions: at 1 µM.
The target in assay [10] is Serine/threonine-protein kinase WNK2 (Homo sapiens) (UniProt Q9Y3S1). Description: Selectivity interaction (Upstate Kinase Profiler service (Millipore)) EUB0000056c WNK2. Particulars: at 1 µM.
Chain of Serine/threonine-protein kinase WNK2 (Homo sapiens) (Q9Y3S1 whole entry): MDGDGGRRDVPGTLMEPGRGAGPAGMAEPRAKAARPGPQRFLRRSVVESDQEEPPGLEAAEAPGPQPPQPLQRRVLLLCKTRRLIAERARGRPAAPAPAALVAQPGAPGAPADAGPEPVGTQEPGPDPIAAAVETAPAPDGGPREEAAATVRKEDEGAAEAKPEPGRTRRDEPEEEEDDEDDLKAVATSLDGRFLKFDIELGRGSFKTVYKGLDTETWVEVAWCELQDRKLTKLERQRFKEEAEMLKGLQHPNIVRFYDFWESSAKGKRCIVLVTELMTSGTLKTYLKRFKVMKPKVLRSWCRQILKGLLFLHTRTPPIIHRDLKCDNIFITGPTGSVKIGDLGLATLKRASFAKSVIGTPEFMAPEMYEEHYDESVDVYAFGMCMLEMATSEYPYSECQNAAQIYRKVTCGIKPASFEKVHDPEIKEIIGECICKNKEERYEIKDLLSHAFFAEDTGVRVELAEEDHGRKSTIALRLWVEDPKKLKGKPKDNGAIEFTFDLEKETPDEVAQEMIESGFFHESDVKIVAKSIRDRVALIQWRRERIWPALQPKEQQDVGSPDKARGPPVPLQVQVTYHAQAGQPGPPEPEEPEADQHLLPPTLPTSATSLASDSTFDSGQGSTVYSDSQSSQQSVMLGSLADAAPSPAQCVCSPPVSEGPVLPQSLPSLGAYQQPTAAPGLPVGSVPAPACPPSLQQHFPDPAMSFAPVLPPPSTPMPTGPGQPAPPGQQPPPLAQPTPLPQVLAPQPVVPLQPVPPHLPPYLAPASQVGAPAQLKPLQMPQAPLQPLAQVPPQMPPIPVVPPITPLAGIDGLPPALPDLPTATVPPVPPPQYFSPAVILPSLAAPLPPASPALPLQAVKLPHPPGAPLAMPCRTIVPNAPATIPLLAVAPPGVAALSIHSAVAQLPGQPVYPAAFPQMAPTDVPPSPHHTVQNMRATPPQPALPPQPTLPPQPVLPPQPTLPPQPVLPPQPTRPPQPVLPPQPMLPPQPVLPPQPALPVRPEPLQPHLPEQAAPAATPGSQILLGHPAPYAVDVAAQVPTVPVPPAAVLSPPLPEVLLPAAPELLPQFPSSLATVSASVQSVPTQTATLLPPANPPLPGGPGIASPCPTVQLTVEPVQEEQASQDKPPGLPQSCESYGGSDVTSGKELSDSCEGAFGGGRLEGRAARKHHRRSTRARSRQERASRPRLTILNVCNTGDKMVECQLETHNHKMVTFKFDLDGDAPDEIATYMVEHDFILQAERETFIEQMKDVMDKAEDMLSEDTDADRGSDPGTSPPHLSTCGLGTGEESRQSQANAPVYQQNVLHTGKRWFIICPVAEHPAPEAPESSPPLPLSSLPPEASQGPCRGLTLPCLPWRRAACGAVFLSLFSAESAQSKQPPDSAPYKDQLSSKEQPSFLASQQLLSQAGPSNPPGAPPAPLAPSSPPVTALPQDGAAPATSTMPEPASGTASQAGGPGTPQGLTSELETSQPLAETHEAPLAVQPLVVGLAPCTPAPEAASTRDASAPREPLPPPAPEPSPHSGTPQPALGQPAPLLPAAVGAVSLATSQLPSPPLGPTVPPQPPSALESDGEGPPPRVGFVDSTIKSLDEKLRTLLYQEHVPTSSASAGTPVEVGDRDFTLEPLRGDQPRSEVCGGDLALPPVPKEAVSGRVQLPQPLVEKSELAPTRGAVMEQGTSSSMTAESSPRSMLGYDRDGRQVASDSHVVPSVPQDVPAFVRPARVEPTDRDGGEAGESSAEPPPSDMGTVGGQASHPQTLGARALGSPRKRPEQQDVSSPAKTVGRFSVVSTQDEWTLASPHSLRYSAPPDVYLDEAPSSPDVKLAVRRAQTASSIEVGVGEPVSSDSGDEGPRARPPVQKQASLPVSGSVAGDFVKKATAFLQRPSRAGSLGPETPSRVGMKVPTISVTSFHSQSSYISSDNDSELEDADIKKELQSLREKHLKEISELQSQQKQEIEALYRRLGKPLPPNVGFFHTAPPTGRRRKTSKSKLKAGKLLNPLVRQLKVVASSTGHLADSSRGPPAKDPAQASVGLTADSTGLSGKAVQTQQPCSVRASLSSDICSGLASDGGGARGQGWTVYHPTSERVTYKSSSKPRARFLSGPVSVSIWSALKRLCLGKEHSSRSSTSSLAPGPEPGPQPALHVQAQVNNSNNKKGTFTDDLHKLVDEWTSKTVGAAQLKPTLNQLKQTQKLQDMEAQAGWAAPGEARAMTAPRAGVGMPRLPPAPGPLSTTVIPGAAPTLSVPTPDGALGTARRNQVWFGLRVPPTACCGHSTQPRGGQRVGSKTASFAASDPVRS

Chain of Serine/threonine-protein kinase 16 (O75716 whole entry): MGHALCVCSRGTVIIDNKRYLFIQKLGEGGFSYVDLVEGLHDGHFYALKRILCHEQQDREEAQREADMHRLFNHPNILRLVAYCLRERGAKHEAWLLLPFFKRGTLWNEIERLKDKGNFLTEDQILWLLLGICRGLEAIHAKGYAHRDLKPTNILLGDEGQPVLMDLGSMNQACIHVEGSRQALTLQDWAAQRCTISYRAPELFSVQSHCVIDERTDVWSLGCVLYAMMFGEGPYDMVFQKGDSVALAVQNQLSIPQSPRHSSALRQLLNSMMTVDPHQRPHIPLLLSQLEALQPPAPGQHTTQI
Chain of Adenosine receptor A2a (P29274 whole entry): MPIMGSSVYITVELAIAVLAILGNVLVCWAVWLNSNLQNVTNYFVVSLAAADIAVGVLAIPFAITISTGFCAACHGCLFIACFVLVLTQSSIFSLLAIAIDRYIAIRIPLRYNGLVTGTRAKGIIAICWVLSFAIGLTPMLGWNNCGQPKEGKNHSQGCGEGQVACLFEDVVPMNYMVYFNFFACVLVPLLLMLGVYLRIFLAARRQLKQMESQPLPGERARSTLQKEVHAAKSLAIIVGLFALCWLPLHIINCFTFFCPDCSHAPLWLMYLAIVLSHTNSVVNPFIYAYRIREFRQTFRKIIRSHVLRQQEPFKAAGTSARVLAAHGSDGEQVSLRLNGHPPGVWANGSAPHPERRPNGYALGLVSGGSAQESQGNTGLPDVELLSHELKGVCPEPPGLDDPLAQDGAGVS

The compound `COc1cc(N(C)c2ccnc3ccc(C(F)(F)F)cc23)cc(OC)c1OC` displayed a % binding in assay [1] of 96%. In assay [2], `CCn1c(-c2nc3cc(C(=O)N4CCCC(N)C4)ccc3n2C)cc2ccccc21` (configuration not stated) had a pXC50 below 4.5 M.

In turn, `N#Cc1cccc(-c2c[nH]c3ncnc(N4CCOCC4)c23)c1` had a % of inhibition in [3] of 13%. Take `CC[C@@H]1[C@H](F)C(=O)N[C@@H]1COc1nccc2cc(C(N)=O)c(OC)cc12` [ZIMLOVISERTIB]: the % of inhibition in [4] was determined as 3.6%; in assay [5], 14.2%. Take `C=CC(=O)Nc1cccc(C(=O)Nc2ccc(Nc3cc(-c4[nH]c(SC)nc4C)ccn3)cc2)c1`: the % of control is 106% in assay [6] (at 1 µM) and 69% in assay [6] (at 5 µM).

Regarding `C=CC(=O)Nc1cc(-n2c(=O)ccc3cnc4ccc(-c5ccc(NS(C)(=O)=O)cc5)cc4c32)ccc1C`, the % of control in assay [7] (at 1 µM) worked out at 100%; in [7] (at 10 µM), 98%. In the case of `O[C@H]1CC[C@H](Nc2ncc3nc(Nc4c(F)cc(F)cc4F)n([C@H]4CCOC4)c3n2)CC1`, in [8], the % of control was 100%.

Regarding `Cc1ccc(-c2ccc3c(ccc4sc5c(c43)NC[C@@H](C)NC5=O)n2)cn1`, the % of inhibition in assay [9] was found to be 3%; in assay [10], 1%.
